Measured values from PMC12587545, “Noncytotoxic polymyxin derivatives enhance antibiotic action against multidrug-resistant Gram-negative bacteria” (Antimicrobial Agents and Chemotherapy, 2025).
In brackets after ≈: the same amount, converted by molar mass. Like-named read-outs stand apart in the source and are kept apart here. Positions of bridges follow the written chain, without caps; N, C: chain ends. Non-standard residues stand in square brackets, D forms with d. Residues, ends and D or L forms follow the SMILES beside them. *: point of attachment. X1 = CC[C@H](C)CCCCC(=O)*; Dab = NCC[C@H](N)C(=O)O

Legend:
E. coli = details: for Resistance phenotype of MDR clinical isolates (antibiotic susceptibility value): Table S4
Procedure: (§1) The bacterial isolates were acquired from ATCC or the Canadian Ward Surveillance (CANWARD) study ([56]). CANWARD isolates were collected from infected patients admitted to participating medical centers across Canada.
(§2) The antibiotic or compound was serially diluted 2-fold in CAMHB on a 96-well plate and was incubated with equal volumes of bacterial inoculum overnight at 37°C. Wells containing only media were used as negative controls, and wells containing only bacteria were used as positive controls. Antibacterial activity was measured by the MIC, or the lowest concentration of agent required to inhibit visible bacterial growth.

K. pneumoniae = tested on: K. pneumoniae
Procedure: as §1
as §2, with “growth. Turbidity was confirmed with a Molecular Devices (United States) EMax Plus microplate reader at a wavelength of 590 nm.” for “growth.”

P. aeruginosa = tested on: P. aeruginosa
Procedure: as §1
as §2, with “growth. Turbidity was confirmed with a Molecular Devices (United States) EMax Plus microplate reader at a wavelength of 590 nm.” for “growth.”

E. cloacae = tested on: E. cloacae
Procedure: as §1
as §2, with “growth. Turbidity was confirmed with a Molecular Devices (United States) EMax Plus microplate reader at a wavelength of 590 nm.” for “growth.”

A. baumannii = type: cell-based, Acinetobacter baumannii
Procedure: Gram-negative and Gram-positive bacterial isolates were grown in lysogeny broth (LB) and brain heart infusion, respectively, overnight in a shaking incubator at 250 rpm and at 37°C.
The antibacterial activity of the antibiotics and compounds was assessed using the broth microdilution assay in accordance with Clinical Laboratory Standards Institute (CLSI) guidelines ([36]), and by following a previously described protocol ([27][–][29], [54], [55]). Bacterial culture grown overnight was diluted in saline to 0.5 McFarland turbidity and was further diluted 1:50 in CAMHB to attain a final concentration of 5 × 10^5 colony-forming units (cfu)/mL for inoculation. The antibiotic or compound was serially diluted 2-fold in CAMHB on a 96-well plate and was incubated with equal volumes of bacterial inoculum overnight at 37°C. Wells containing only media were used as negative controls, and wells containing only bacteria were used as positive controls. Antibacterial activity was measured by the MIC, or the lowest concentration of agent required to inhibit visible bacterial growth. Turbidity was confirmed with a Molecular Devices (United States) EMax Plus microplate reader at a wavelength of 590 nm.

[1] = cited from earlier work
Procedure: Although the amphiphilic nature of polymyxins is crucial to permeabilize the outer membrane, this property can also be detrimental as it increases binding affinity to serum proteins, thereby limiting bioavailability ([50]). […] To assess the impact of serum binding on antibiotic potentiation, FBS was added to the media to simulate these conditions (Table 10). Zoliflodacin potentiation by compound 1 was diminished with increasing ...

U-87 MG = assay: Cell viability assay (PrestoBlue); type: cell-based; details: U-87 MG
Procedure: (§3) Kidney cell lines, HK-2 (CRL-2190) and RPTEC/TERT1 (CRL-4031), and neural cell lines, U-87 MG (HTB-14) and SK-N-SH (HTB-11), were obtained from American Type Culture Collection (ATCC). HK-2 cells were cultured in T75 flasks with keratinocyte serum-free medium supplemented with bovine pituitary extract, human epidermal growth factor, and 2.5% FBS. RPTEC/TERT1 cells were cultured in T75 flasks with Dulbecco’s modified Eagle’s medium:F12 supplemented with the ATCC (United States) human telomerase reverse transcriptase immortalized RPTEC growth kit, G418 (0.1 mg/mL final concentration), and 2% FBS. Both U-87 MG and SK-N-SH cells were cultured in minimal essential media supplemented with 10% FBS. The cells were incubated in a humidified atmosphere at 5% CO2 and at 37°C.
(§4) The cytotoxicity of the compounds toward the mammalian cell lines was assessed using the cell viability assay protocols as previously described ([29]). Designated wells in 96-well plates were seeded with HK-2 (5,000 cells), RPTEC/TERT1 (8,000 cells), U-87 MG (7,000 cells), or SK-N-SH (8,000 cells) in 50 µL. Blank wells received an identical volume of only media. […] Subsequently, PrestoBlue reagent (Invitrogen, United States) was added to the wells to a final concentration of 10% (vol/vol), and the plate was incubated for an additional 1 h. Fluorescence was measured with a SpectraMax M2 plate reader (Molecular Devices, United States), at excitation and emission wavelengths of 560 and 590 nm, respectively. Values from the blank wells were subtracted from the corresponding wells containing cells. The cell viability relative to the controls with vehicle was calculated and presented as mean ± standard deviation of at least two experiments with five replicates each. CC50 values were obtained using GraphPad Prism (version 10.4.1) by non-linear regression (four-parameter logistic fit).

SK-N-SH = assay: Cell viability assay (PrestoBlue); type: cell-based; details: SK-N-SH
Procedure: as §3, §4

[2] = E. coli 94393, colistin-resistant
[3] = E. coli 94474, colistin-resistant
[4] = K. pneumoniae 113250, colistin-resistant
[5] = P. aeruginosa 259-96916, clinical isolate
[6] = P. aeruginosa 262-101856, clinical isolate
[7] = P. aeruginosa 264-104354, clinical isolate
[8] = P. aeruginosa 101243, colistin-resistant
[9] = P. aeruginosa 114228, colistin-resistant
[10] = E. cloacae 121887, colistin-resistant
[11] = A. baumannii 92247, colistin-resistant

Row | Molecule | MIC (E. coli; [2]) | MIC (E. coli; [3]) | MIC (E. coli; E. coli 107115) | MIC (E. coli; E. coli 131629) | MIC (K. pneumoniae; [4]) | MIC (K. pneumoniae; K. pneumoniae 116381) | MIC (P. aeruginosa; [5]) | MIC (P. aeruginosa; [6]) | MIC (P. aeruginosa; [7]) | MIC (P. aeruginosa; [8]) | MIC (P. aeruginosa; [9]) | MIC (E. cloacae; E. cloacae 117029) | MIC (E. cloacae; [10]) | MIC (A. baumannii; [11]) | MIC (A. baumannii; A. baumannii 110193) | MIC (A. baumannii; A. baumannii AB027) | also measured
1 | CN(C)c1cc(CNCC(C)(C)C)c(O)c2c1C[C@H]1C[C@H]3[C@H](N(C)C)C(O)=C(C(N)=O)C(=O)[C@@]3(O)C(O)=C1C2=O [OMC, omadacyline] | – | – | – | – | – | – | – | – | – | – | – | – | – | – | – | – | Resistance phenotype of MDR clinical isolates (antibiotic susceptibility value) (E. coli; E. coli 94393 (mcr-1 +)): 4; Resistance phenotype of MDR clinical isolates (antibiotic susceptibility value) (E. coli; E. coli 94474 (mcr-1 +)): 16; Resistance phenotype of MDR clinical isolates (antibiotic susceptibility value) (E. coli; E. coli 107115): 4; Resistance phenotype (antibiotic susceptibility profile) (K. pneumoniae; K. pneumoniae 113250): 2; Resistance phenotype (antibiotic susceptibility profile) (K. pneumoniae; K. pneumoniae 116381): 4; Resistance phenotype (antibiotic susceptibility profile) (P. aeruginosa; P. aeruginosa 259-96916): 64; Resistance phenotype (antibiotic susceptibility profile) (P. aeruginosa; P. aeruginosa 262-101856): 64; Resistance phenotype (antibiotic susceptibility profile) (P. aeruginosa; P. aeruginosa 264-104354): 64; Resistance phenotype (antibiotic susceptibility profile) (P. aeruginosa; P. aeruginosa 114228): 128; Resistance phenotype of MDR clinical isolates (antibiotic susceptibility value) (E. cloacae; E. cloacae 117029, Table S4): 4; Resistance phenotype (antibiotic susceptibility profile) (A. baumannii; A. baumannii AB027): 1; Resistance phenotype (antibiotic susceptibility profile) (A. baumannii; A. baumannii AB031): 2
2 | Polymyxin B [PMB] | 4 mg/L | 16 mg/L | 0.25 mg/L | ≤0.25 mg/L | 128 mg/L | 1 mg/L | ≤0.063 mg/L | 0.5 mg/L | 2 mg/L | >128 mg/L | 64 mg/L | 0.5 mg/L | >128 mg/L | 8 mg/L | 1 mg/L | 0.25 mg/L | MIC (E. coli; E. coli ATCC 25922, wild-type): 0.5 mg/L; MIC (P. aeruginosa; P. aeruginosa PAO1, wild-type, CAMHB, overnight 37°C): 1 mg/L; mean protein binding [1]: > 90%; median protein binding [1]: 58%; MIC (A. baumannii; A. baumannii ATCC 17978, wild-type): 2 mg/L; toxicity (U-87 MG): lack of toxicity; toxicity (SK-N-SH): lack of toxicity
3 | CC[C@H](C)CCCCC(=O)N[C@@H](CCN)C(=O)N[C@H](C(=O)N[C@@H](CCN)C(=O)N[C@H]1CCNC(=O)[C@H]([C@@H](C)O)NC(=O)[C@H](CCN)NC(=O)[C@H](CCN)NC(=O)[C@H](CC(C)C)NC(=O)[C@@H](CC(C)C)NC(=O)[C@H](CCN)NC1=O)[C@@H](C)O [Colistin, colistin] (X1-[Dab]T[Dab][Dab][Dab][dL]L[Dab][Dab]T; lactam 4-C (inferred); N-terminus assumed) | 4 mg/L (≈ 3.42 µM) | 16 mg/L (≈ 13.7 µM) | 0.125 mg/L (≈ 0.107 µM) | ≤0.25 mg/L | 256 mg/L (≈ 219 µM) | 1 mg/L (≈ 0.855 µM) | 0.5 mg/L (≈ 0.428 µM) | 2 mg/L (≈ 1.71 µM) | 1 mg/L (≈ 0.855 µM) | 1024 mg/L (≈ 876 µM) | 4 mg/L (≈ 3.42 µM) | 0.25 mg/L (≈ 0.214 µM) | >16 mg/L | 4 mg/L (≈ 3.42 µM) | 0.5 mg/L (≈ 0.428 µM) | 0.25 mg/L (≈ 0.214 µM) | MIC (A. baumannii; A. baumannii AB031): 0.25 mg/L (≈ 0.214 µM)
